In patent publication US20100267561A1, “HERBICIDAL PYRIDAZINONE DERIVATIVES” (priority 2007, published 2010):

Experiments:
Type in all cases: in vivo
[1] = test system: barnyardgrass (Echinochloa crus-galli); experiment: Test B flooded paddy test plant response
How it was run: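 Compounds were added directly to paddy water over 2-leaf-stage plants in pots flooded 3 cm above soil, water depth maintained. Visual injury scored against controls after 13 to 15 days in greenhouse, 0 (none) to 100 (complete control); dash indicates no result.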

[2] = test system: chickweed (Stellaria media); experiment: Test B postemergence plant response; conditions: for Plant response rating, Chickweed: Postemergence
How it was run: (§1)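 Visual injury ratings on a 0–100 scale, where 100 means complete control, were made 13 to 15 days after postemergence treatment of greenhouse-grown plants at the 1- to 4-leaf stage.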

[3] = test system: winter barley (Hordeum vulgare); experiment: Test B postemergence plant response; conditions: for Plant response rating, Barley: Postemergence, scale 0 to 100, 0 no effect, 100 complete control
How it was run: as §1

[4] = test system: windgrass (Apera spica-venti); experiment: Test B postemergence plant response; conditions: for Plant response rating, Windgrass: Postemergence
How it was run: as §1

[5] = test system: canarygrass (Phalaris minor); experiment: Test B postemergence plant response; conditions: for Plant response rating, Canarygrass: Postemergence
How it was run: as §1

[6] = test system: lambsquarters (Chenopodium album); experiment: Test B pre-/postemergence plant response; conditions: for Lambsquarters plant response rating: 8 g ai/ha
How it was run: (§2)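 Visual scoring from 0 (no effect) to 100 (complete control) against untreated controls was done 13 to 15 days after greenhouse treatment. Chemicals were formulated in a surfactant-containing non-phytotoxic solvent and applied to soil preemergence or to 1- to 4-leaf (2-18 cm) plants postemergence.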

[7] = test system: bermudagrass (Cynodon dactylon); experiment: Test B pre-/postemergence plant response; conditions: for Bermudagrass plant response rating: 8 g ai/ha
How it was run: as §2

[8] = test system: eastern black (E.B.) nightshade (Solanum ptycanthum); experiment: Test B pre-/postemergence plant response; conditions: Preemergence
How it was run: as §2

[9] = test system: blackgrass (Alopecurus myosuroides); experiment: Test B pre-/postemergence plant response; conditions: for Blackgrass plant response rating: 8 g ai/ha
How it was run: as §2

[10] = test system: velvetleaf (Abutilon theophrasti); experiment: Test B pre-/postemergence plant response; conditions: for Velvetleaf plant response rating: 8 g ai/ha
How it was run: as §2

[11] = test system: yellow nutsedge (Cyperus esculentus); experiment: Test B pre-/postemergence plant response; conditions: for Nutsedge, Yellow plant response rating: 8 g ai/ha
How it was run: as §2

[12] = test system: wild oat (Avena fatua); experiment: Test B pre-/postemergence plant response; conditions: for Oat, Wild plant response rating: 8 g ai/ha
How it was run: as §2

[13] = test system: morningglory (Ipomoea coccinea); experiment: Test B pre-/postemergence plant response; conditions: for Morningglory plant response rating: 8 g ai/ha
How it was run: as §2

[14] = test system: giant foxtail (Setaria faberii); experiment: Test B pre-/postemergence plant response; conditions: for Foxtail, Giant plant response rating: 8 g ai/ha
How it was run: as §2

[15] = test system: corn (Zea mays); experiment: Test B pre-/postemergence plant response; conditions: for Corn plant response rating: 8 g ai/ha
How it was run: as §2

[16] = 8 g ai/ha, postemergence, 0-100 scale
[17] = 31 g ai/ha, scale 0 to 100, 0 no effect, 100 complete control
[18] = 62 g ai/ha, scale 0 to 100, 0 no effect, 100 complete control
[19] = Postemergence, 16 g ai/ha, scale 0 to 100
[20] = Postemergence, 31 g ai/ha, scale 0 to 100, 0 no effect, 100 complete control
[21] = Postemergence, 62 g ai/ha, scale 0 to 100, 0 no effect, 100 complete control
[22] = Preemergence, 16 g ai/ha, scale 0 to 100 (0 no effect, 100 complete control)
[23] = Preemergence, 31 g ai/ha, 0 to 100 scale, 0 no effect, 100 complete control
[24] = Preemergence, 62 g ai/ha, scale 0 to 100

## Cc1cc(-c2ccc(Cl)cc2)nn1-c1c(OS(C)(=O)=O)cnn(C)c1=O [Compound 36]
[1]; Flood (flooded paddy test), 62 g ai/ha, scale 0 to 100, 0 no effect, 100 complete control
  Plant response rating, Barnyardgrass: 0
[1]; Flood (flooded paddy test), 125 g ai/ha, scale 0 to 100, 0 no effect, 100 complete control
  Plant response rating, Barnyardgrass: 0
[1]; Flood (flooded paddy test), 250 g ai/ha, scale 0 to 100, 0 no effect, 100 complete control
  Plant response rating, Barnyardgrass: 0
[1]; Flood, 31 g ai/ha, scale 0 to 100
  Plant response rating, Barnyardgrass: 0
[2]; [16]
  Chickweed plant response rating: 0
[2]; 16 g ai/ha, scale 0 to 100
  Plant response rating, Chickweed: 0
[2]; [17]
  Plant response rating, Chickweed: 0
[2]; [18]
  Plant response rating, Chickweed: 0
[3]; [16]
  Barley plant response rating: 0
[3]; 16 g ai/ha
  Plant response rating, Barley: 0
[3]; 31 g ai/ha
  Plant response rating, Barley: 15
[3]; 62 g ai/ha
  Plant response rating, Barley: 15
[4]; [16]
  Windgrass plant response rating: 0
[4]; 16 g ai/ha, scale 0 to 100
  Plant response rating, Windgrass: 0
[4]; [18]
  Plant response rating, Windgrass: 65
[5]; [16]
  Canarygrass plant response rating: 0
[5]; 16 g ai/ha, scale 0 to 100
  Plant response rating, Canarygrass: 0
[5]; [17]
  Plant response rating, Canarygrass: 10
[5]; [18]
  Plant response rating, Canarygrass: 10
[6]; postemergence, 0-100 scale
  Lambsquarters plant response rating: 0
[6]; [19]
  Plant response rating, Lambsquarters: 0
[6]; [20]
  Plant response rating, Lambsquarters: 0
[6]; [21]
  Plant response rating, Lambsquarters: 0
[6]; [22]
  Plant response rating, Lambsquarters: 0
[6]; [23]
  Plant response rating, Lambsquarters: 0
[6]; [24]
  Plant response rating, Lambsquarters: 0
[6]; Preemergence, scale 0 to 100
  Lambsquarters plant response rating: 0
[7]; postemergence, 0-100 scale
  Bermudagrass plant response rating: 40
[7]; [19]
  Plant response rating, Bermudagrass: 80
[7]; [20]
  Plant response rating, Bermudagrass: 100
[7]; [21]
  Plant response rating, Bermudagrass: 100
[7]; Preemergence, scale 0 to 100 (0 no effect, 100 complete control)
  Bermudagrass plant response rating: 98
[7]; [22]
  Plant response rating, Bermudagrass: 100
[7]; [23]
  Plant response rating, Bermudagrass: 100
[7]; [24]
  Plant response rating, Bermudagrass: 100
[8]; 16 g ai/ha, scale 0 to 100 (0 no effect, 100 complete control)
  Plant response rating, Nightshade, E. B.: 0
[8]; 31 g ai/ha, 0 to 100 scale, 0 no effect, 100 complete control
  Plant response rating, Nightshade, E. B.: 0
[8]; 62 g ai/ha, scale 0 to 100
  Plant response rating, Nightshade, E. B.: 0
[8]; 8 g ai/ha, scale 0 to 100
  Nightshade, E. B. plant response rating: 0
[9]; postemergence, 0-100 scale
  Blackgrass plant response rating: 0
[9]; [19]
  Plant response rating, Blackgrass: 50
[9]; [20]
  Plant response rating, Blackgrass: 50
[9]; [21]
  Plant response rating, Blackgrass: 80
[9]; [22]
  Plant response rating, Blackgrass: 80
[9]; [23]
  Plant response rating, Blackgrass: 100
[9]; [24]
  Plant response rating, Blackgrass: 100
[9]; Preemergence, scale 0 to 100
  Blackgrass plant response rating: 80
[10]; postemergence, 0-100 scale
  Velvetleaf plant response rating: 0
[10]; [19]
  Plant response rating, Velvetleaf: 0
[10]; [21]
  Plant response rating, Velvetleaf: 0
[10]; [22]
  Plant response rating, Velvetleaf: 0
[10]; [23]
  Plant response rating, Velvetleaf: 0
[10]; [24]
  Plant response rating, Velvetleaf: 0
[10]; Preemergence, scale 0 to 100
  Velvetleaf plant response rating: 0
[11]; postemergence, 0-100 scale
  Nutsedge, Yellow plant response rating: 0
[11]; [19]
  Plant response rating, Nutsedge, Yellow: 0
[11]; [20]
  Plant response rating, Nutsedge, Yellow: 0
[11]; [21]
  Plant response rating, Nutsedge, Yellow: 0
[11]; [22]
  Plant response rating, Nutsedge, Yellow: 0
[11]; [23]
  Plant response rating, Nutsedge, Yellow: 0
[11]; [24]
  Plant response rating, Nutsedge, Yellow: 0
[11]; Preemergence, scale 0 to 100
  Nutsedge, Yellow plant response rating: 0
[12]; postemergence, 0-100 scale
  Oat, Wild plant response rating: 0
[12]; [19]
  Plant response rating, Oat, Wild: 50
[12]; [20]
  Plant response rating, Oat, Wild: 60
[12]; [21]
  Plant response rating, Oat, Wild: 90
[12]; [22]
  Plant response rating, Oat, Wild: 50
[12]; [23]
  Plant response rating, Oat, Wild: 90
[12]; [24]
  Plant response rating, Oat, Wild: 95
[12]; Preemergence, scale 0 to 100
  Oat, Wild plant response rating: 0
[13]; postemergence, 0-100 scale
  Morningglory plant response rating: 0
[13]; [19]
  Plant response rating, Morningglory: 0
[13]; [20]
  Plant response rating, Morningglory: 0
[13]; [21]
  Plant response rating, Morningglory: 0
[13]; [22]
  Plant response rating, Morningglory: 0
[13]; [23]
  Plant response rating, Morningglory: 0
[13]; [24]
  Plant response rating, Morningglory: 0
[13]; Preemergence, scale 0 to 100
  Morningglory plant response rating: 0
[14]; postemergence, 0-100 scale
  Foxtail, Giant plant response rating: 0
[14]; [19]
  Plant response rating, Foxtail, Giant: 35
[14]; [20]
  Plant response rating, Foxtail, Giant: 60
[14]; [21]
  Plant response rating, Foxtail, Giant: 60
[14]; [22]
  Plant response rating, Foxtail, Giant: 100
[14]; [23]
  Plant response rating, Foxtail, Giant: 100
[14]; [24]
  Plant response rating, Foxtail, Giant: 100
[14]; Preemergence, scale 0 to 100
  Foxtail, Giant plant response rating: 100
[15]; postemergence, 0-100 scale
  Corn plant response rating: 10
[15]; [19]
  Plant response rating, Corn: 15
[15]; [20]
  Plant response rating, Corn: 15
[15]; [21]
  Plant response rating, Corn: 40
[15]; [22]
  Plant response rating, Corn: 55
[15]; [23]
  Plant response rating, Corn: 70
[15]; [24]
  Plant response rating, Corn: 95
[15]; Preemergence, scale 0 to 100
  Corn plant response rating: 40
